# Experimental data published in ChEMBL document CHEMBL4433265, “Discovery of human lactate dehydrogenase 5 inhibitors (hLDH5) with anti-lung cancer activity through an in silico method and biological validation” (Bioorg Med Chem Lett, 2019).
# Activity calls are given as the source filed them. The rule behind the calls is not given here.
# How the values were obtained:
# A549 = test: Growth inhibition of human A549 cells at 50 uM incubated for 72 hrs by MTT assay; format: functional; details: for inhibition of growth at 50 µM: A549, 72 h, read-out: GI
# [1] = target: T1, L-lactate dehydrogenase A chain (Homo sapiens, UniProt P00338); test: Inhibition of His-tagged human LDHA at 10 uM incubated for 10 mins using NADH and pyruvate by microplate reader based assay
# NCI-H1975 [2] = test: Growth inhibition of human NCI-H1975 cells at 50 uM incubated for 72 hrs by MTT assay; format: functional; details: for inhibition of growth at 50 µM: NCI-H1975, 72 h, read-out: GI
# [3] = target: T1, L-lactate dehydrogenase A chain; test: Inhibition of LDHA in human NCI-H1975 cells assessed as reduction in lactate production incubated for 4 hrs; format: cell-based
# NCI-H1975 [4] = test: Growth inhibition of human NCI-H1975 cells under normal oxygenated conditions by IncuCyte zoom live cell analysis; format: cell-based
# NCI-H1975 [5] = test: Growth inhibition of human NCI-H1975 cells at 10 uM under normal oxygenated conditions by IncuCyte zoom live cell analysis; format: cell-based; details: nci-h1975, 10 µM
# NCI-H1975 [6] = test: Growth inhibition of human NCI-H1975 cells at 10 uM under hypoxic conditions by IncuCyte zoom live cell analysis; format: functional, cell-based
# [7] = target: T1, L-lactate dehydrogenase A chain; test: Binding affinity to His-tagged human LDHA in absence of NAD+ by isothermal titration calorimetry
# [8] = target: T1, L-lactate dehydrogenase A chain; test: Binding affinity to His-tagged human LDHA in presence of NAD+ by isothermal titration calorimetry
# [9] = target: T1, L-lactate dehydrogenase A chain; test: Inhibition of His-tagged human LDHA incubated for 10 mins using NADH and pyruvate by microplate reader based assay
# NCI-H1975 [10] = test: Growth inhibition of human NCI-H1975 cells under hypoxic conditions by IncuCyte zoom live cell analysis; format: functional, cell-based
SMILES,inhibition [1],inhibition of growth at 50 µM (A549),inhibition of growth at 50 µM (NCI-H1975 [2]),growth inhibition (GI) (A549),growth inhibition (GI) (NCI-H1975 [2]),further results
COc1ccccc1OCC(=O)NC1CCC(Oc2nc(C)cc(C)n2)CC1 (stereo not drawn),78.5%,23.3%,45.2%,–,–,–
COc1cc(=O)n2c(c1CCCc1cc(OC)c(OC)c(OC)c1)CCC2,25.7%,–,–,inactive,inactive,–
O=C(c1cc2n(n1)CCCC2)N1CCN(C(=O)C2(c3cccs3)CCCC2)CC1,inactive,–,–,inactive,inactive,–
Cc1ncn(CC(=O)N2CCC(Oc3cncc(N(C)C)n3)C2)c(=O)c1C (stereo not drawn),66.3%,–,–,inactive,inactive,–
O=C(c1cc2n(n1)CCCO2)N1CCC(N2CCN(c3ncccc3C(F)(F)F)CC2)CC1,inactive,–,–,inactive,inactive,–
COc1cccc(OCC(=O)Nc2ccc3c(c2)NC(=O)C(C)(C)CO3)c1,inactive,26.9%,15.3%,–,–,–
O=C1N[C@](c2ccc(N3CCOCC3)cc2)(c2ccsc2)CC(O)=C1Sc1ccccc1Cl,100%,100%,100%,–,–,–

# Continued, in another order:
inhibition [1],SMILES,inhibition of growth at 50 µM (A549),inhibition of growth at 50 µM (NCI-H1975 [2]),growth inhibition (GI) (A549),growth inhibition (GI) (NCI-H1975 [2]),further results
45.8%,O=C(CNC1CCN(c2ncc(F)cn2)CC1)COCc1ccccc1,55.3%,39.8%,–,–,–
inactive,N#Cc1cccnc1N1CCC(CNC(=O)C(=O)Nc2cccc(C(F)(F)F)c2)CC1,33.5%,25.9%,–,–,–
95.2%,O=C(NCC(=O)N1CCC(Cc2nc(C3CC3)no2)CC1)c1ccccc1,69.3%,58.7%,–,–,inhibition [3]: Dose-dependent effect; IC50 (NCI-H1975 [4]): 36.5 µM; growth inhibition (GI) (NCI-H1975 [5]): Non-Toxic; growth inhibition (GI) (NCI-H1975 [6]): Active; Kd [7]: 43.2 µM; Kd [8]: 1.02 µM; EC50 [9]: 0.7 µM; IC50 (NCI-H1975 [10]): 5.7 µM
